Here are results for 87 compounds from a melting point compilation (Tetko et al.; mined from patent text by program, amines drawn as free bases though some values may be those of a salt).

Where only a bound is given, the exact number is not on record here.

For `O=C1OCc2c1cc1ccc(Cl)cc1c2-c1ccc(Cl)cc1`, the melting point (commonly the temperature of the solid-liquid transition) is 205 to 207 °C.

The compound `Cc1ccccc1N1CCc2nnc3c(C)cccc3c21` yielded a melting point of 135 to 137 °C.

Compound `CCc1cn(C2CC(O)C(CNC(=O)C(C)S(=O)c3ccc(Cl)cc3Cl)O2)c(=O)[nH]c1=O` (mixture of isomers) gave a melting point of 208 to 209 °C.

Turning to `FC(F)C(F)(F)Oc1cccc(Nc2nccc(-c3cccs3)n2)c1`, the melting point was in the range of 115 to 116 °C.

On to `O=C(O)[C@H](Cc1c[nH]c2ccccc12)NS(=O)(=O)c1ccc(F)cc1`, for which the melting point lay in the range of 57 to 60 °C.

For the compound `COC(=O)c1cc(C)c(C(=O)O)c(C)c1`, the melting point fell in the range of 191 to 192 °C.

The compound `CSc1nc(-c2ccc(=O)n(C)n2)c(-c2ccccc2)nc1N` yielded a melting point of 204 to 206 °C.

`Cc1cccc(C)c1NC(=O)CN1C(=O)C2(COc3cc4c(cc32)CCO4)c2ccccc21` (configuration not stated) had a melting point of 261 to 262 °C.

`OCCON=Cc1ccccn1` yielded a melting point of 45 °C.

In turn, `CN1C2CCCC1CC(NC(=O)c1cc(Cl)cc3nc(-c4ccccc4)oc13)C2` (configuration not stated) displayed a melting point of 199 to 201 °C.

As to `CCc1nnc(-c2cccc([N+](=O)[O-])c2)n1-c1ccc(OC)cc1`, the melting point was found to be 126 °C.

`Cc1nc(O)c(C)c(NCC2CC2)n1`: the melting point lay within 227 to 228 °C.

`O=C1N(Cc2cccc(O)c2)c2ccccc2C12COc1cc3c(cc12)CCO3` (configuration not stated) yielded a melting point of 225 to 227 °C.

`CCC1(C)CC2(NC(=O)N(Cc3ccc(CN4C(=O)NC5(CC(C)(CC)NC(C)(CC)C5C)C4=O)cc3)C2=O)C(C)C(C)(CC)N1` (configuration not stated): the melting point was in the range of 272 to 274 °C.

Take `O=C(O)C=C1SC(=Nc2cccc3ccccc23)N(c2cccc3ccccc23)C1=O`: the melting point fell in the range of 250 to 253 °C.

In turn, `O=C1N(C(c2ccccc2)c2ccccc2)c2ccccc2C1(O)c1cc2c(cc1O)OCCCO2` (configuration not stated) yielded a melting point of 115 to 118 °C.

For `CN(C(c1ccccc1)c1ccccc1)S(=O)(=O)CC(N)=O`, the melting point lay within 110 to 115 °C.

In turn, `O=c1oc2c(-c3ccccc3)cccc2c(OCCN2CCOCC2)c1-c1ccccc1` yielded a melting point of 106 to 108 °C.

`CO[C@H]1c2ccn3c(C)c(C)nc3c2N[C@H](c2ccccc2)[C@H]1O` gave a melting point of 108 to 110 °C.

`COCCCc1ccc(C#CC2(O)CN3CCC2CC3)cc1` (configuration not stated): the melting point was found to be 145 °C.

Turning to `NS(=O)(=O)c1ccc(-c2cc3c(cc2-c2ccc(F)cc2)OCO3)cc1`, the melting point is 191 to 192 °C.

Consider `CSC(=N[N+](=O)[O-])NCc1ccc(Cl)nc1`, for which the melting point was 140 to 142 °C.

Turning to `COc1ccc(C2=NN(Cc3ccncc3)C(=O)[C@H]3CC=CC[C@@H]23)cc1OC` (relative stereo), the melting point lay within 121 to 124 °C.

Compound `O=[N+]([O-])c1cc(Br)ccc1Cl` returned a melting point of 65 to 67 °C.

Compound `COCOc1cc(C(F)(F)F)ccc1-c1cc(-c2cccc([N+](=O)[O-])c2)c(C#N)c(NC(=O)c2cccs2)n1` yielded a melting point of 139 to 140 °C.

`O=C(c1cc2cc(OCCNC[C@H](O)COc3ccccc3)ccc2[nH]1)N1CCCC1` registered a melting point of 110 to 115 °C.

`COc1cccc2c1CCC(COS(=O)(=O)c1ccc(C)cc1)C2` (configuration not stated): the melting point lay within 81 to 82 °C.

Turning to `Cc1cc(-c2cc(CBr)c(=O)n(Cc3ccccc3Cl)n2)ccc1F`, the melting point was in the range of 113 to 115 °C.

Compound `NS(=O)(=O)c1cc2c3c(cc([N+](=O)[O-])c2cc1[N+](=O)[O-])N(C(=O)C(F)(F)F)CC3CCl` (configuration not stated) displayed a melting point of 201 to 204 °C.

For the compound `CCCC12CCC3C4CCC(=O)C=C4CCC3C1CCC2OCc1ccccc1` (configuration not stated), the melting point was 198 to 200 °C.

In turn, `COC(=O)c1sc(-c2ccccc2)cc1NC(C)=O` registered a melting point of 115 °C.

`Cc1cccc(CSCCNC(=O)c2c(Cl)cccc2Cl)c1` gave a melting point of 56 to 57 °C.

The compound `Cc1oc(-c2ccccc2)nc1C(=O)COc1ccc(C#N)cc1` registered a melting point of 202 to 203 °C.

For the compound `O=C(O)CC(=O)Nc1ccccc1CCNC(=O)/C(=C/c1c[nH]c2ccccc12)NC(=O)OC1C2CC3CC(C2)CC1C3` (configuration not stated), the melting point was in the range of 112 to 120 °C.

Regarding `Fc1ccc(-n2c3c(c4cc(F)ccc42)CNCC3)cc1`, the melting point lay in the range of 126 to 129 °C.

Regarding `Cc1sc(C(N)=O)c2c1-c1nn(Cc3ccccc3)cc1CC2`, the melting point lay within 182 to 183 °C.

With `CCCCc1cc2cc(OCC(=O)OCC)c(Cl)c(Cl)c2s1`, the melting point was 72 to 73 °C.

Consider `CCCc1nc2c(N)nc3cc(Br)ccc3c2n1CCCONC(=O)C(C)C`, for which the melting point was 176 to 178 °C.

For the compound `Fc1ccc(N2CCN(CCCNc3ccc(-n4ccnc4)cc3)CC2)cc1`, the melting point is 164 to 166 °C.

In the case of `COC(=O)C=CC(=O)c1cc(Cl)ccc1N`, the melting point fell in the range of 111 to 112 °C.

The compound `O=c1[nH]c2cc(F)c(NCC3=CCCOC3)cc2o1` yielded a melting point of 175 to 176 °C.

`O=C(O)Cc1ccc(N2CC3=C(CCCC3)C2=O)cc1` returned a melting point of 189 to 191 °C.

On to `COC(=O)CCc1cc2cc(Cl)ccc2n1S(=O)(=O)c1ccc(NC(C)=O)cc1`, for which the melting point is 154 to 157 °C.

Take `NCC1Cc2cc(Cl)cc(-c3cccnc3)c2O1` (configuration not stated): the melting point is > 250 °C.

`COC(=O)c1sc(Cl)cc1N`: the melting point fell in the range of 99 to 101 °C.

In turn, `CNc1nc(-c2cccc(-c3cncc(SC)c3)c2)c2cc(OC)c(OC)cc2n1` displayed a melting point of 184 to 186 °C.

In the case of `COc1ccc(C2(c3ccc(OC)c(OC)c3)CCC(=O)O2)cc1OC`, the melting point lay in the range of 133 to 134 °C.

The compound `O=C1OC(=O)c2c(Sc3ccc(Cl)c(Cl)c3)cc([N+](=O)[O-])cc21` registered a melting point of 154 to 157 °C.

In turn, `OCCC(CCO)c1ccncc1` came in with a melting point of 66 to 68 °C.

`CN(C#N)c1ccc(OCc2ccccc2)cc1`: the melting point turned out to be 116 °C.

`O=C1c2cc(I)ccc2-n2c1nc1ccccc1c2=O` had a melting point of 296 to 297 °C.

In turn, `COC(=O)c1cc(I)cn1[Si](C(C)C)(C(C)C)C(C)C` showed a melting point of 81 to 83 °C.

With `CCCCOc1ccc(NC(=O)c2cnc(C(=O)OC)c(Cl)c2)cc1`, the melting point lay in the range of 121 to 123 °C.

For the compound `CC(C)OC(=O)CC(NCCCN(C)C)C(=O)O` (configuration not stated), the melting point was in the range of 164 to 166 °C.

Turning to `CC(=O)NCC1CC(c2ccc(-n3ccc(C=NO)c3)c(F)c2)=NO1` (single isomer, unassigned; (-)), the melting point was in the range of 216 to 217 °C.

`COC(=O)c1cc2cc(OC(F)F)ccc2nc1C(=O)OC` yielded a melting point of 84 to 85 °C.

Consider `CC(=O)C(=NNc1ccc(C)cc1)Sc1ccc(Cl)cc1`, for which the melting point lay within 133 to 136 °C.

Compound `COC(=O)c1ccc(Oc2ccc(N)cc2C(=O)OC)cc1` came in with a melting point of 144 to 146 °C.

`Cc1ccc(S(=O)(=O)OCC2Cc3cccc(-c4cc(Cl)cc(Cl)c4)c3O2)cc1` (configuration not stated) returned a melting point of 113 to 115 °C.

`Cc1nc(Sc2cccc(C(F)(F)F)n2)sc1CC(=O)O` returned a melting point of 162 to 164 °C.

The compound `COc1ccc(C(=O)O)cc1C12CC3CC(CC(C3)C1)C2` had a melting point of 238 to 239 °C.

Turning to `COC(=O)c1[nH]c2ccccc2c1Oc1ccc(Cl)cc1[N+](=O)[O-]`, the melting point lay within 171 to 172 °C.

Regarding `CCCc1ccc(-n2nc(Cl)cc2-c2ccc(S(C)(=O)=O)cc2)cc1[N+](=O)[O-]`, the melting point lay within 42 to 46 °C.

Regarding `O=C(Nc1ccccc1O)c1ccc(CSc2ccc(O)cc2)cc1`, the melting point was in the range of 152 to 156 °C.

As to `CCCCCCC(CCCCCC)N1C(=O)c2ccc3c4cccc5c(NC(C)=O)ccc(c6ccc(c2c36)C1=O)c54`, the melting point was > 230 °C.

As for `COC(=O)CCCc1cc2nc(Cl)ccc2n1S(=O)(=O)c1ccccc1F`, the melting point worked out at 83 °C.

Consider `CCCC12COC(C=O)(OC1)OC2`, for which the melting point was in the range of 117 to 118 °C.

`COC1=C(c2ccccc2)C(CCC(=O)O)OC1=O` (configuration not stated): the melting point is 126 to 127 °C.

With `C#Cc1nc(-c2ccco2)c2ncn(Cc3ccc(OC)cc3)c2n1`, the melting point was determined as 155 °C.

`CS(=O)(=O)c1ccc(C2SCC(=O)N2c2ccc(Cl)cc2)cc1` (configuration not stated) had a melting point of 231 to 233 °C.

`O=C(c1ccccc1CN1CC=CCC1)N1CCN2C(=O)OC(c3ccccc3)(c3ccccc3)C2C1` (configuration not stated) came in with a melting point of 155 to 157 °C.

In the case of `COC(=O)Nc1cnc2c(NC(=O)c3c(Cl)cccc3Cl)cccc2c1-n1ccnc1`, the melting point is 236 to 238 °C.

The compound `CCCCC(=O)Nc1ccc(C(F)(F)F)c(-n2nc(CC)n(Cc3ccc(-c4ccccc4S(=O)(=O)NC(=O)OC(C)(C)C)cc3F)c2=O)c1` yielded a melting point of 121 to 123 °C.

Compound `BrC(c1ccccc1)(c1ccccc1)C1(c2ccccc2)OCCO1` displayed a melting point of 206 °C.

`C#CCNC(=O)N1CC(c2ccc(Cl)c(Cl)c2)C1`: the melting point fell in the range of 106 to 108 °C.

In turn, `CCOC(=O)COc1ccc(OCc2ccccc2)cc1C(Nc1ccc(C(=N)NC(=O)OC(C)(C)C)cc1)C(=O)OCC` (racemic) returned a melting point of 258 °C.

For `O=C(c1ccc(Cl)cc1)C(Br)c1ccc(Cl)cc1` (configuration not stated), the melting point is 81.5 to 83 °C.

`O=C(Nc1ccc([N+](=O)[O-])cc1)N(O)C1CCCCCCC1` had a melting point of 143 to 144 °C.

Take `O=C(Nc1cccc(Cl)c1)N1CCc2cc(S(=O)(=O)N3CCN(c4cccc(Cl)c4)CC3)ccc21`: the melting point amounted to 190 °C.

Take `CN1C(=O)N(c2cc(F)ccc2F)C(=O)C1=Cc1ccccc1F`: the melting point lay within 94 to 97 °C.

Compound `COC(=O)c1cc(=O)c2oc3ccccc3c(=O)c2[nH]1` returned a melting point of 244 to 245 °C.

In turn, `NC(=O)N1CCN(c2nn(-c3ccccc3)c3cc(F)ccc23)CC1` had a melting point of 168 to 170 °C.

The compound `CNCCOc1cc(NC(=O)c2ccc(-c3ccc(-c4noc(C)n4)cc3C)cc2)ccc1OC` had a melting point of 97 to 99 °C.

Compound `Cc1cccc(C2c3cc(NC(=O)CC(C)(C)C)c(C)c(C)c3OC2(C)C)c1` (configuration not stated) came in with a melting point of 156 to 157 °C.

Compound `COc1ccc(CNC(=O)N(C)O)cc1OC` showed a melting point of 132 to 133 °C.

In turn, `CC(=O)SC[C@H](NC(=O)C(C)C)C(=O)NCCSC(=O)C(C)C` showed a melting point of 100 to 102 °C.

Take `CCOC(=O)c1ccc(N2CCC(NC(=O)OC(C)(C)C)CC2)nc1`: the melting point is 140 to 142 °C.
